Consider six molecules from patent publication US20120184625A1, “METHODS AND COMPOSITIONS FOR CONTROLLING PESTS” (priority 2001, published 2012).

Data set [1] concerns Two spotted mite (TSM) Tetranychus urticae Koch. Nature of the data set: TSM leaf disc bioassay, Potter spray tower. The conditions noted are these: for LD50 and 95% CL: in vivo. It counts as in vivo. On the set-up: LD50 and 95% CL: unit not given beside the values. The protocol:
Two spotted mite (TSM) Tetranychus urticae Koch [Acarina: Tetranychidae] were collected from a mass culture maintained at the University of Western Sydney's Hawkesbury Campus in Richmond, NSW, Australia. They were reared on potted French beans (Phaseolus vulgaris L [Fabales: Fabaceae] in a glasshouse maintained at 25±5° C., 65±5% RH and 14 h D:L photoperiod. Only young females were selected for bioassay.
From an E. cloeziana oil extract (containing 85% tasmanone), 1.1765 g was dissolved in 5 mL ethyl alcohol and distilled water containing 200 ppm Triton X-100™ was added to prepare a 1% stock solution. From this homogenised stock solution, further serial dilutions of 0.0125, 0.025, 0.05, 0.10, and 0.12% were prepared by mixing the required amount of stock solution in distilled water and Triton X-100 solution. Each treatment was conducted on 60-80 TSM, which were evenly distributed on four French bean leaf discs (25 mm diam) contained in 90 mm diam. petri dishes. The leaf discs were placed with their underside uppermost on moist absorbent cotton wool covered with muslin netting. Water was added to the dishes daily to prevent desiccation of the leaf discs. Five mL aliquots (unless otherwise stated) were applied to each petri dish with a Potter precision spray tower as described by Herron et al (1995). The average mass of solution applied to each dish was calculated to be 3.95 mg/cm^2. Mortality was recorded 24 h after treatment. Death was recognised by the absence of movement when the test organisms were mechanically stimulated. Data were analysed using SPSS for Windows™ Version 7. Probit analysis was carried out for dose-mortality data and heterogeneity of regressions was determined by the Pearson chi-squared characteristic.
In addition, TSM was treated with E. cloeziana oil extract in combination with paraffin oil. In particular, E. cloeziana oil extract at levels of 0.1, 0.2, 0.3, 0.4 and 0.5 g were weighed out and each was made up to a weight of 10.0 g with a formulated paraffin oil (BioPest®), which was then sonicated for 10 min. A 1.0% v/v of each blend was prepared by mixing 1.0 mL with distilled water in a 100.0 mL volumetric flask. TSM were transferred to the petri dish following the same standard method. Five-mL aliquots were applied to each petri dish and mortality was recorded 24 h after treatment. All blends of E. cloeziana oil extract with paraffin oil produced 100.0% mortality, compared with Biopest® alone which caused only 35.5±6.9 mortality.
The efficacy of purified β-triketones against TSM was investigated using the TSM bioassay described in Example 8.

Data set [2] has as its system greenhouse thrips (GHT), Heliothrips haemorrhoidalis Bouché. Nature of the data set: Greenhouse thrips bioassay on lemon leaf discs, Potter spray tower. The class given is in vivo. The protocol: Adult parthenogenetic female greenhouse thrips (GHT), Heliothrips haemorrhoidalis Bouché (Thysanoptera: Thripidae) of similar age were obtained from a colony reared on orange fruits and maintained in an insectary at UWS Hawkesbury under conditions of 25±3° C., 65% RH and 16 h D:L photoperiod
The same experimental procedure used for TSM was repeated for GHT except that lemon leaf discs were used instead of French beans. The required number of adult thrips for each treatment was transferred with a fine brush to the underside of a lemon disc of the same diameter (6 cm) as the base of a petri dish. The lemon disc was mounted on agar with its adaxial side uppermost. Immediately after treatment the petri dish was covered with perforated plastic wrap. […]
The efficacy of purified β-triketones against GHT was investigated using the GHT bioassay described in Example 8.
All β-triketones except jensenone caused 100% mortality on GHT at a concentration of 0.3% when 5 mL aliquots were applied with a Potter spray tower.

`COC1=CC(=O)C(C(C)=O)C(=O)C1(C)C` (stereo not drawn) [Platyphyllol, 6,6-dimethyl-2-acetyl-5-methoxycyclohex-4-ene-1,3-dione]: the “LD50 and 95% CL” value in data set [1] is recorded as 0.070.
On to `CC(=O)C1=C(O)C(C)CC(C)(C)C1=O` (stereo not drawn) [Angustione, 1-acetyl-3,5,5-trimethylcyclohex-2,6-dione], for which the “LD50 and 95% CL” value in data set [1] is 0.22 (0.21-0.24).
Regarding `CC(C)CC(=O)C1C(=O)C(C=O)C(=O)C(C=O)C1=O` (stereo not drawn) [Jensenone], in data set [1] (TSM, 0.05-0.4%), the “behavioural effect on treated TSM” value was “to move normally and continued to convulse”; the “recovery of treated TSM” value is “treatment. There was no recovery”; the “time after treatment at which TSM commenced to die” value is given as “until they commenced to die 72 h after”. In data set [1] (TSM, any concentration tested (0.05-0.4%)), the “direct mortality within 24 h” value is reported as “No direct mortality occurred in any”. In data set [2] (72 h after application in the 0.4% treatment), this molecule yielded a mortality of 60.0%. In data set [2] (all concentrations tested), the behavioural effects result is “Convulsion and lack of movement”; the “direct mortality within 24 h” value was “did not cause direct mortality”.
As to `COC1=C(C)C(=O)C(C(=O)C(C)C)C(=O)C1(C)C` (stereo not drawn) [Tasmanone, 1-isobutroyl-4-methoxy-3,5,5-trimethylcyclohex-3-en-2,6-dione], the “LD50 and 95% CL” value in data set [1] is 0.055.
On to `CC(=O)C1=C(O)C(C)(C)C=C(C)C1=O` [Dehydroangustione, 1-acetyl-3,5,5-trimethylcyclohex-3-en-2,6-dione], for which the “LD50 and 95% CL” value in data set [1] is given as 0.36 (0.33-0.41).
The same measure, in the same setting: to `CC1(C)C(=O)C(CCc2ccccc2)C(=O)C(C)(C)C1=O` [Grandiflorone, 1-(2-phenylethyl)-3,3,5,5-tetramethylcyclohexan-2,4,6-trione] belongs 0.04.

A word on the mortality: it is the percentage killed.
